pEC50: −log10 of the molar value.
What follows are compounds tested on NLRP3 inflammasome (assay: NLRP3 inflammasome activation: ASC-SPECK formation in gramicidin-stimulated THP-1 cells). Conditions: Homo sapiens, THP-1, inhibition of ASC SPECK formation; PMA-treated human monocytic THP-1 cells, compound 1 h before 12.5 μg/ml gramicidin, 3-hour treatment.
Format: cell-based
Summary of the method: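 Undifferentiated human THP-1 cells primed overnight with 10 ng/ml PMA, then given compounds 1 h before 12.5 μg/ml gramicidin for 3 h at 37° C in RPMI with 0.01% BSA. Fixed cells immunostained for ASC with DRAQ5 nuclear counterstain; DRAQ5-positive cells with ASC specks counted by high-content imaging; EC50 from curve fitting.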
For Cc1cc(C(F)(F)F)cc(O)c1-c1cnc2cn(C34CCC(C3)C4)nc2n1 [Example 42, 2-[2-(1-bicyclo[2.1.1]hexanyl)pyrazolo[3,4-b]pyrazin-6-yl]-3-methyl-5-(trifluoromethyl)phenol], the pEC50 was 7.15.
Compound Cc1cc(C(F)(F)F)cc(O)c1-c1cnc2cn(C34CC(C(F)F)(C3)C4)nc2n1 [Example 39, 2-[2-[3-(difluoromethyl)-1-bicyclo[1.1.1]pentanyl]pyrazolo[3,4-b]pyrazin-6-yl]-3-methyl-5-(trifluoromethyl)phenol] has a pEC50 of 7.05.
Cc1cc(C(F)(F)F)cc(O)c1-c1cnc2cn([C@H]3COCC[C@@H]3O)nc2n1 [Example 35, (3S,4S)-3-[6-[2-hydroxy-6-methyl-4-(trifluoromethyl)phenyl]pyrazolo[3,4-b]pyrazin-2-yl]tetrahydropyran-4-ol] showed a pEC50 of 7.43.
For Cc1cc(C(F)(F)F)cc(O)c1-c1cnc2cn(C34COCC(C3)C4)nc2n1 [Example 14, 2-(2-(3-oxabicyclo[3.1.1]heptan-1-yl)-2H-pyrazolo[3,4-b]pyrazin-6-yl)-3-methyl-5-(trifluoromethyl)phenol], the pEC50 was 6.81.
Cc1cc(C(F)(F)F)cc(O)c1-c1cnc2cn(C3(C)CCOCC3)nc2n1 [Example 51, 3-methyl-2-[2-(4-methyltetrahydropyran-4-yl)pyrazolo[3,4-b]pyrazin-6-yl]-5-(trifluoromethyl)phenol] was tested, and the pEC50 was 6.85.
For Cc1cc(C(F)(F)F)cc(O)c1-c1cnc2cn([C@H]3C[C@H](C#N)C3)nc2n1 [Example 36, (1R,3R)-3-(6-(2-hydroxy-6-methyl-4-(trifluoromethyl)phenyl)-2H-pyrazolo[3,4-b]pyrazin-2-yl)cyclobutane-1-carbonitrile], the pEC50 was 7.74.
Cc1cc(C(F)(F)F)cc(O)c1-c1cnc2cn([C@H]3CCOC[C@@H]3F)nc2n1 (single isomer, unassigned) [Example 103, 2-(2-((3R,4S or 3S,4R)-3-fluorotetrahydro-2H-pyran-4-yl)-2H-pyrazolo[3,4-b]pyrazin-6-yl)-3-methyl-5-(trifluoromethyl)phenol] gave a pEC50 of 6.49.
CCOCOc1cc(C(F)(F)F)cc(C)c1-c1cnc2c([C@H](C)O)n(C[C@H]3CC(=O)N(C4CC4)C3)nc2n1 (single isomer, unassigned) [Example 113, (S or R)-1-cyclopropyl-4-((6-(2-(ethoxymethoxy)-6-methyl-4-(trifluoromethyl)phenyl)-3-((S or R)-1-hydroxyethyl)-2H-pyrazolo[3,4-b]pyrazin-2-yl)methyl)pyrrolidin-2-one] showed a pEC50 of 6.19.
Cc1cc(C(F)(F)F)cc(O)c1-c1cnc2cn([C@H]3C[C@@H]3C)nc2n1 [Example 52, 3-methyl-2-[2-[(1S,2S)-2-methylcyclopropyl]pyrazolo[3,4-b]pyrazin-6-yl]-5-(trifluoromethyl)phenol] gave a pEC50 of 7.40.
In the case of Cc1cc(C(F)(F)F)cc(O)c1-c1cnc2cn(C34CC(CO)(C3)C4)nc2n1 [Example 43, 2-[2-[3-(hydroxymethyl)-1-bicyclo[1.1.1]pentanyl]pyrazolo[3,4-b]pyrazin-6-yl]-3-methyl-5-(trifluoromethyl)phenol], the pEC50 was 7.59.
Cc1cc(C(F)(F)F)cc(O)c1-c1cnc2cn(C34CC(C#N)(C3)C4)nc2n1 [Example 8, 3-(6-(2-hydroxy-6-methyl-4-(trifluoromethyl)phenyl)-2H-pyrazolo[3,4-b]pyrazin-2-yl)bicyclo[1.1.1]pentane-1-carbonitrile] showed a pEC50 of 7.42.
Cc1cc(C(F)(F)F)cc(O)c1-c1cnc2cn([C@@H]3[C@@H]4COC[C@@H]43)nc2n1 [Example 9, 2-(2-((1R,5S,6S)-3-oxabicyclo[3.1.0]hexan-6-yl)-2H-pyrazolo[3,4-b]pyrazin-6-yl)-3-methyl-5-(trifluoromethyl)phenol] showed a pEC50 of 7.23.

Same assay, conditions: inhibition of ASC SPECK formation; PMA-treated human monocytic THP-1 cells, compound 1 h before 12.5 μg/ml gramicidin, 3-hour treatment
In the case of Cc1cc(C(F)(F)F)cc(O)c1-c1cnc2cn(C34CCOCC3C4)nc2n1 (single isomer, unassigned) [Example 91, 2-(2-((1R,6S or 1S,6R)-3-oxabicyclo[4.1.0]heptan-6-yl)-2H-pyrazolo[3,4-b]pyrazin-6-yl)-3-methyl-5-(trifluoromethyl)phenol], the pEC50 was 7.22.
Compound Cc1cc(C(F)(F)F)cc(O)c1-c1cnc2cn(C3CCC(=O)N(C(C)C)C3)nc2n1 (single isomer, unassigned) [Example 61, (S or R)-5-(6-(2-hydroxy-6-methyl-4-(trifluoromethyl)phenyl)-2H-pyrazolo[3,4-b]pyrazin-2-yl)-1-isopropylpiperidin-2-one] has a pEC50 of 7.00.
Compound Cc1cc(C(F)(F)F)cc(O)c1-c1cnc2cn([C@H]3CCO[C@H](C)C3)nc2n1 (single isomer, unassigned) [Example 90, 3-methyl-2-(2-((2S,4R or 2R,4S)-2-methyltetrahydro-2H-pyran-4-yl)-2H-pyrazolo[3,4-b]pyrazin-6-yl)-5-(trifluoromethyl)phenol] has a pEC50 of 7.00.
With Cc1cc(C(F)(F)F)cc(O)c1-c1cnc2cn(C34CCOCC3C4)nc2n1 (single isomer, unassigned) [Example 92, 2-(2-((1S,6R or 1R,6S)-3-oxabicyclo[4.1.0]heptan-6-yl)-2H-pyrazolo[3,4-b]pyrazin-6-yl)-3-methyl-5-(trifluoromethyl)phenol] the pEC50 was 6.88.
Work on Cc1cc(C(F)(F)F)cc(O)c1-c1cnc2cn(CC3CC(=O)N(C(C)C)C3)nc2n1 (single isomer, unassigned) [Example 81, (S or R)-4-((6-(2-hydroxy-6-methyl-4-(trifluoromethyl)phenyl)-2H-pyrazolo[3,4-b]pyrazin-2-yl)methyl)-1-isopropylpyrrolidin-2-one] yielded a pEC50 of 6.36.
With Cc1cc(C(F)(F)F)cc(O)c1-c1cnc2c(C(C)O)n(C3CCC(=O)N(C(C)C)C3)nc2n1 (single isomer, unassigned) [Example 120, (S or R)-5-(6-(2-hydroxy-6-methyl-4-(trifluoromethyl)phenyl)-3-((R or S)-1-hydroxyethyl)-2H-pyrazolo[3,4-b]pyrazin-2-yl)-1-isopropylpiperidin-2-one] the pEC50 was 5.41.
Cc1cc(C(F)(F)F)cc(O)c1-c1cnc2cn(C3CCOCC3(C)C)nc2n1 (single isomer, unassigned) [Example 97, (R or S)-2-(2-(3,3-dimethyltetrahydro-2H-pyran-4-yl)-2H-pyrazolo[3,4-b]pyrazin-6-yl)-3-methyl-5-(trifluoromethyl)phenol] showed a pEC50 of 6.17.
In the case of Cc1cc(C(F)(F)F)cc(O)c1-c1cnc2cn([C@@H]3CCOC[C@@H]3C)nc2n1 (single isomer, unassigned) [Example 86, 3-methyl-2-(2-((3S,4S or 3R,4R)-3-methyltetrahydro-2H-pyran-4-yl)-2H-pyrazolo[3,4-b]pyrazin-6-yl)-5-(trifluoromethyl)phenol], the pEC50 was 6.49.
With Cc1cc(C(F)(F)F)cc(O)c1-c1cnc2cn([C@@H]3C[C@@H]4C[C@H]3CO4)nc2n1 (single isomer, unassigned) [Example 3, 2-(2-((1S,4R,5R or 1R,4S,5S)-2-oxabicyclo[2.2.1]heptan-5-yl)-2H-pyrazolo[3,4-b]pyrazin-6-yl)-3-methyl-5-(trifluoromethyl)phenol] the pEC50 was 7.46.
Work on Cc1nc2cn(C3CCC(=O)N(C)C3)nc2nc1-c1ccc(C(F)(F)F)cc1O (single isomer, unassigned) [Example 111, (R or S)-5-(6-(2-hydroxy-4-(trifluoromethyl)phenyl)-5-methyl-2H-pyrazolo[3,4-b]pyrazin-2-yl)-1-methylpiperidin-2-one] yielded a pEC50 of 6.76.
Compound CCc1nnc2n1CC(n1cc3ncc(-c4c(C)cc(C(F)(F)F)cc4O)nc3n1)CC2 (single isomer, unassigned) [Example 73, (S or R)-2-(2-(3-ethyl-5,6,7,8-tetrahydro-[1,2,4]triazolo[4,3-a]pyridin-6-yl)-2H-pyrazolo[3,4-b]pyrazin-6-yl)-3-methyl-5-(trifluoromethyl)phenol] has a pEC50 of 6.85.
Work on Cc1cc(C(F)(F)F)cc(O)c1-c1cnc2cn(C34COCC3C4)nc2n1 (single isomer, unassigned) [Example 83, 2-(2-((1R,5R or 1S,5S)-3-oxabicyclo[3.1.0]hexan-1-yl)-2H-pyrazolo[3,4-b]pyrazin-6-yl)-3-methyl-5-(trifluoromethyl)phenol] yielded a pEC50 of 7.96.
In the case of Cc1cc(C(F)(F)F)cc(O)c1-c1cnc2cn(C3(C)CC(F)C3)nc2n1 (single isomer, unassigned) [Example 75, 2-(2-((1S,3S or 1R,3R)-3-fluoro-1-methylcyclobutyl)-2H-pyrazolo[3,4-b]pyrazin-6-yl)-3-methyl-5-(trifluoromethyl)phenol], the pEC50 was 6.58.
Cc1nc2cn(C3CCC(=O)N(C)C3)nc2nc1-c1ccc(C(F)(F)F)cc1O (single isomer, unassigned) [Example 112, (S or R)-5-(6-(2-hydroxy-4-(trifluoromethyl)phenyl)-5-methyl-2H-pyrazolo[3,4-b]pyrazin-2-yl)-1-methylpiperidin-2-one] was tested, and the pEC50 was 6.22.
For Cc1cc(C(F)(F)F)cc(O)c1-c1cnc2cn(CC3CC(=O)N(C4CC4)C3)nc2n1 (single isomer, unassigned) [Example 62, (R or S)-1-cyclopropyl-4-((6-(2-hydroxy-6-methyl-4-(trifluoromethyl)phenyl)-2H-pyrazolo[3,4-b]pyrazin-2-yl)methyl)pyrrolidin-2-one], the pEC50 was 6.54.
In the case of CCN1CC(n2cc3ncc(-c4c(C)cc(C(F)(F)F)cc4O)nc3n2)CCC1=O (single isomer, unassigned) [Example 65, (S or R)-1-ethyl-5-(6-(2-hydroxy-6-methyl-4-(trifluoromethyl)phenyl)-2H-pyrazolo[3,4-b]pyrazin-2-yl)piperidin-2-one], the pEC50 was 7.10.
Work on Cc1cc(C(F)(F)F)cc(O)c1-c1cnc2cn([C@H]3CCO[C@H](C)C3)nc2n1 (single isomer, unassigned) [Example 89, 3-methyl-2-(2-((2R,4S or 2S,4R)-2-methyltetrahydro-2H-pyran-4-yl)-2H-pyrazolo[3,4-b]pyrazin-6-yl)-5-(trifluoromethyl)phenol] yielded a pEC50 of 6.53.
